Assay results reported in US20240246955A1, “TROPOMYOSIN RECEPTOR KINASE (TRK) DEGRADATION COMPOUNDS AND METHODS OF USE” (CULLGEN (SHANGHAI), INC., priority 2021, published 2024).

Assays:
KM12 cells = test: KM12 cell viability assay (CellTiter-Glo); type: cell-based; settings: for IC50: Homo sapiens, 72 h, KM12 cells, 3 days, CellTiter-Glo
Description: The kinase activity of TRK is known to play important roles in tumors expressing TRK-fusion proteins, as TRK kinase inhibitors compromise cell proliferation, survival, and induce marked clinical responses (Amatu et al., 2016; Drilon et al., 2018; Drilon et al., 2017; Khotskaya et al., 2017). KM12 cells seeded in 96-well plates were treated with heterobifunctional compounds following a 11-point 3-fold serial dilution. Three days after treatment, cell viability was determined using the CellTiter-Glo kit, and normalized to the mean values of 3 replicates of untreated cells. Dose-dependent response was analyzed following the least-squares non-linear regression method using the GraphPad Prism software. Each data point in the figure represents the mean values of three technical replicates ±standard deviation.
KM12 cells seeded in 96-well plates were treated with heterobifunctional compounds following a 11-point 3-fold serial dilution for 3 days.
KM12, TRKA G595R mutated KM12, HEL, and other cells were cultured at 37° C. with 5% CO2 in DMEM or RPMI 1640 Medium supplemented with 10% fetal bovine serum. Cells were authenticated using the short tandem repeat (STR) assays. Mycoplasma test results were negative.
Cells were seeded at a density of 5000 cells per well in 96-well assay plates and treated with test compounds following a 11-point 3-fold serial dilution. Three days later, cell viability was determined using the CellTiter-Glo assay kit (Promega) according to the manufacturer's instructions. The dose-response curves were determined and IC50 values were calculated using the GraphPad Prism software following a nonlinear regression (least squares fit) method.

TPM3-TRKA fusion protein = target: T1, TPM3-TRKA fusion protein (Homo sapiens, UniProt P04629); test: TPM3-TRKA degradation in KM12 cells (Western blot); type: cell-based; settings: 16 hours, TRK protein, immunoblot; for inhibition at 0.01 µM: 10 nM; for inhibition at 0.1 µM: 100 nM
T1 construct: TPM3 (N-terminal part of tropomyosin alpha-3, natural fusion partner); endogenous in cells; host or cells: KM12 colon cancer cells; the other entry of the earlier key: TPM3 (P06753, Tropomyosin alpha-3 chain)
Description: Specific exemplary heterobifunctional compounds were characterized in KM12 cells. KM12 cells that express TPM3-TRKA fusion protein were treated with 10 nM or 100 nM heterobifunctional compounds disclosed herein or their corresponding warheads/inhibitors for 16 hours. Cells were collected, lysed and subject to immunoblotting using an antibody specific to TRK proteins.
KM12 cells were treated with heterobifunctional compounds at 10 nM or 100 nM for 16 hours.
Cultured cells were washed with cold PBS once and lysed in cold RIPA buffer supplemented with protease inhibitors and phosphatase inhibitors (Beyotime Biotechnology). The solutions were then incubated at 4° C. for 30 minutes with gentle agitation to fully lyse cells. Cell lysates were centrifuged at 13,000 rpm for 10 minutes at 4° C. and pellets were discarded. Total protein concentrations in the lysates were determined by BCA assays (Beyotime Biotechnology). Cell lysates were mixed with Laemmli loading buffer to 1× and heated at 99° C. for 5 min. Proteins were resolved on SDS-PAGE and visualized by chemiluminescence. Images were taken by a ChemiDoc MP Imaging system (Bio-Rad). Protein bands were quantitated using the software provided by Bio-Rad.
The percentage of TRK protein degradation of each compound at 10 nM and 100 nM was determined in KM12 cells as described in Methods. The percentage of degradation of each compound was indicated in the following categories: N/A: data not available; −: no degradation; +: degradation less than 50%; ++: degradation equal or greater than 50% but less than […]; +++: degradation equal or greater than 80%.

T1 sequence (P04629 with tags, fused parts or gaps): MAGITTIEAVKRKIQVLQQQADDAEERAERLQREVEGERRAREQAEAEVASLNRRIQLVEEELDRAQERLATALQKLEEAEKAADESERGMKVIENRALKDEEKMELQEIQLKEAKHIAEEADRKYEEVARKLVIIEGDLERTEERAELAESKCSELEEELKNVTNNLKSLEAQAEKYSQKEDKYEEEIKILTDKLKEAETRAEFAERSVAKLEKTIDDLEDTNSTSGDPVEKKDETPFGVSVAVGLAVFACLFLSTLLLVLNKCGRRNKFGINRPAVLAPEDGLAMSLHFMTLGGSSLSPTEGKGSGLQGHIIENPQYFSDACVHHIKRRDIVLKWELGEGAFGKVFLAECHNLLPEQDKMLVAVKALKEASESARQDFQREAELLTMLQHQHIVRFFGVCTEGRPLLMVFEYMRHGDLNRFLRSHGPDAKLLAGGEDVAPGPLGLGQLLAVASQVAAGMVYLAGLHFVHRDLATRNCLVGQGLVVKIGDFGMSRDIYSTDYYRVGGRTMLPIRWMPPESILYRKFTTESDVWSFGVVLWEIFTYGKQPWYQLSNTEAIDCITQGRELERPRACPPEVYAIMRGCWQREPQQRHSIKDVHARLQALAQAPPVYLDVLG

Row | inhibition at 0.01 µM (TPM3-TRKA fusion protein) | inhibition at 0.1 µM (TPM3-TRKA fusion protein) | Structure (SMILES) | IC50 (KM12 cells) | viability of KM12 cells (KM12 cells; 11-point 3-fold serial dilution, 3 days (FIG. 3))
1 | < 50% | 50 to 800% | COCCN1C[C@@H](NC(=O)Nc2c(C)c(-c3cnc(N4CCN(C(=O)CCOCCOCCNC(=O)C[C@H](NC(=O)[C@@H]5C[C@@H](O)CN5C(=O)[C@@H](NC(=O)C5(F)CC5)C(C)(C)C)c5ccc(-c6scnc6C)cc5)CC4)nc3)nn2-c2ccccc2)[C@H](c2cccc(F)c2)C1 [CPD-016, (2S,4R)-1-((S)-2-(1-fluorocyclopropane-1-carboxamido)-3,3-dimethylbutanoyl)-N-((S)-3-((2-(2-(3-(4-(5-(5-(3-((3S,4R)-4-(3-fluorophenyl)-1-(2-methoxyethyl)pyrrolidin-3-yl)ureido)-4-methyl-1-phenyl-1H-pyrazol-3-yl)pyrimidin-2-yl)piperazin-1-yl)-3-oxopropoxy)ethoxy)ethyl)amino)-1-(4-(4-methylthiazol-5-yl)phenyl)-3-oxopropyl)-4-hydroxypyrrolidine-2-carboxamide] | 190 nM | –
2 | – | 50 to 800% | COCCN1C[C@@H](NC(=O)Nc2c(C)c(-c3cnc(N4CCN(C(=O)CCOCCOCCOCCNC(=O)C[C@H](NC(=O)[C@@H]5C[C@@H](O)CN5C(=O)[C@@H](NC(=O)C5(F)CC5)C(C)(C)C)c5ccc(-c6scnc6C)cc5)CC4)nc3)nn2-c2ccccc2)[C@H](c2cccc(F)c2)C1 [CPD-017, (2S,4R)-1-((S)-2-(1-fluorocyclopropane-1-carboxamido)-3,3-dimethylbutanoyl)-N-((S)-16-(4-(5-(5-(3-((3S,4R)-4-(3-fluorophenyl)-1-(2-methoxyethyl)pyrrolidin-3-yl)ureido)-4-methyl-1-phenyl-1H-pyrazol-3-yl)pyrimidin-2-yl)piperazin-1-yl)-1-(4-(4-methylthiazol-5-yl)phenyl)-3,16-dioxo-7,10,13-trioxa-4-azahexadecyl)-4-hydroxypyrrolidine-2-carboxamide] | 445 nM | –
3 | – | 50 to 800% | COCCN1C[C@@H](NC(=O)Nc2c(C)c(-c3cnc(N4CCN(C(=O)CCOCCOCCOCCOCCNC(=O)C[C@H](NC(=O)[C@@H]5C[C@@H](O)CN5C(=O)[C@@H](NC(=O)C5(F)CC5)C(C)(C)C)c5ccc(-c6scnc6C)cc5)CC4)nc3)nn2-c2ccccc2)[C@H](c2cccc(F)c2)C1 [CPD-018, (2S,4R)-1-((S)-2-(1-fluorocyclopropane-1-carboxamido)-3,3-dimethylbutanoyl)-N-((S)-19-(4-(5-(5-(3-((3S,4R)-4-(3-fluorophenyl)-1-(2-methoxyethyl)pyrrolidin-3-yl)ureido)-4-methyl-1-phenyl-1H-pyrazol-3-yl)pyrimidin-2-yl)piperazin-1-yl)-1-(4-(4-methylthiazol-5-yl)phenyl)-3,19-dioxo-7,10,13,16-tetraoxa-4-azanonadecyl)-4-hydroxypyrrolidine-2-carboxamide] | 852 nM | –
4 | > 80% | > 80% | COCCN1C[C@@H](NC(=O)Nc2c(C)c(-c3cnc(N4CCN(C(=O)CNc5ccc6c(c5)C(=O)N(C5CCC(=O)NC5=O)C6=O)CC4)nc3)nn2-c2ccccc2)[C@H](c2cccc(F)c2)C1 (stereo partly drawn) [CPD-019, 1-(3-(2-(4-((2-(2,6-dioxopiperidin-3-yl)-1,3-dioxoisoindolin-5-yl)glycyl)piperazin-1-yl)pyrimidin-5-yl)-4-methyl-1-phenyl-1H-pyrazol-5-yl)-3-((3S,4R)-4-(3-fluorophenyl)-1-(2-methoxyethyl)pyrrolidin-3-yl)urea] | 9.2 nM | inhibited the viability

Continued, compound first:

Row | Structure (SMILES) | inhibition at 0.01 µM (TPM3-TRKA fusion protein) | inhibition at 0.1 µM (TPM3-TRKA fusion protein) | IC50 (KM12 cells) | viability of KM12 cells (KM12 cells; 11-point 3-fold serial dilution, 3 days (FIG. 3))
5 | COCCN1C[C@@H](NC(=O)Nc2c(C)c(-c3cnc(N4CCN(C(=O)CCCCCNC(=O)C[C@H](NC(=O)[C@@H]5C[C@@H](O)CN5C(=O)[C@@H](NC(=O)C5(F)CC5)C(C)(C)C)c5ccc(-c6scnc6C)cc5)CC4)nc3)nn2-c2ccccc2)[C@H](c2cccc(F)c2)C1 [CPD-012, (2S,4R)-1-((S)-2-(1-fluorocyclopropane-1-carboxamido)-3,3-dimethylbutanoyl)-N-((S)-3-((6-(4-(5-(5-(3-((3S,4R)-4-(3-fluorophenyl)-1-(2-methoxyethyl)pyrrolidin-3-yl)ureido)-4-methyl-1-phenyl-1H-pyrazol-3-yl)pyrimidin-2-yl)piperazin-1-yl)-6-oxohexyl)amino)-1-(4-(4-methylthiazol-5-yl)phenyl)-3-oxopropyl)-4-hydroxypyrrolidine-2-carboxamide] | < 50% | 50 to 800% | 132 nM | –
6 | COCCN1C[C@@H](NC(=O)Nc2c(C)c(-c3cnc(N4CCN(C(=O)CCCNC(=O)C[C@H](NC(=O)[C@@H]5C[C@@H](O)CN5C(=O)[C@@H](NC(=O)C5(F)CC5)C(C)(C)C)c5ccc(-c6scnc6C)cc5)CC4)nc3)nn2-c2ccccc2)[C@H](c2cccc(F)c2)C1 [CPD-013, (2S,4R)-1-((S)-2-(1-fluorocyclopropane-1-carboxamido)-3,3-dimethylbutanoyl)-N-((S)-3-((4-(4-(5-(5-(3-((3S,4R)-4-(3-fluorophenyl)-1-(2-methoxyethyl)pyrrolidin-3-yl)ureido)-4-methyl-1-phenyl-1H-pyrazol-3-yl)pyrimidin-2-yl)piperazin-1-yl)-4-oxobutyl)amino)-1-(4-(4-methylthiazol-5-yl)phenyl)-3-oxopropyl)-4-hydroxypyrrolidine-2-carboxamide] | < 50% | 50 to 800% | 79.7 nM | –
7 | COCCN1C[C@@H](NC(=O)Nc2c(C)c(-c3cnc(N4CCN(C(=O)CCCCCCCNC(=O)C[C@H](NC(=O)[C@@H]5C[C@@H](O)CN5C(=O)[C@@H](NC(=O)C5(F)CC5)C(C)(C)C)c5ccc(-c6scnc6C)cc5)CC4)nc3)nn2-c2ccccc2)[C@H](c2cccc(F)c2)C1 [CPD-014, (2S,4R)-1-((S)-2-(1-fluorocyclopropane-1-carboxamido)-3,3-dimethylbutanoyl)-N-((S)-3-((8-(4-(5-(5-(3-((3S,4R)-4-(3-fluorophenyl)-1-(2-methoxyethyl)pyrrolidin-3-yl)ureido)-4-methyl-1-phenyl-1H-pyrazol-3-yl)pyrimidin-2-yl)piperazin-1-yl)-8-oxooctyl)amino)-1-(4-(4-methylthiazol-5-yl)phenyl)-3-oxopropyl)-4-hydroxypyrrolidine-2-carboxamide] | 50 to 800% | > 80% | 17.8 nM | –
8 | COCCN1C[C@@H](NC(=O)Nc2c(C)c(-c3cnc(N4CCN(C(=O)CCCCCCCCCNC(=O)C[C@H](NC(=O)[C@@H]5C[C@@H](O)CN5C(=O)[C@@H](NC(=O)C5(F)CC5)C(C)(C)C)c5ccc(-c6scnc6C)cc5)CC4)nc3)nn2-c2ccccc2)[C@H](c2cccc(F)c2)C1 [CPD-015, (2S,4R)-1-((S)-2-(1-fluorocyclopropane-1-carboxamido)-3,3-dimethylbutanoyl)-N-((S)-3-((10-(4-(5-(5-(3-((3S,4R)-4-(3-fluorophenyl)-1-(2-methoxyethyl)pyrrolidin-3-yl)ureido)-4-methyl-1-phenyl-1H-pyrazol-3-yl)pyrimidin-2-yl)piperazin-1-yl)-10-oxodecyl)amino)-1-(4-(4-methylthiazol-5-yl)phenyl)-3-oxopropyl)-4-hydroxypyrrolidine-2-carboxamide] | 50 to 800% | 50 to 800% | 35.5 nM | –
